Here are results for seven compounds from patent US20140349989A1, “COMPOUNDS AND THERAPEUTIC USES THEREOF” (Alzheimer's Institute of America, priority 2011, published 2014).

Where two headings read alike, the source gives them in different places.

One series concerns the target T1, Human NAMPT (Homo sapiens, UniProt P43490).
T1 construct: 6xHis (N); made in house; host or cells: E. coli BL21-AI
In words: Nampt Activity Assay (coupled enzyme fluorometric, resazurin/diaphorase). Type of series: biochemical. To be noted: His-tagged human NAMPT, 3 μM NAM, 8 μM PRPP, room temperature up to 3 hours; read-out: in vitro IC50 (Nampt catalytic activity). From the text: 5-phosphoribosyl-1-pyrophosphate (PRPP), ATP, NaM, NaMN, Triton X-100, UDP-glucose and diaphorase were purchased from Sigma-Aldrich, St. Louis, Mo. Human NAMPT, NMN adenylyltransferase (NMNAT1) and UDP-glucose dehydrogenase (UGDH) encoding DNAs were each inserted into a house-modified E. Coli expression vector such that the expressed proteins carried an N-terminal 6×His tag. The His-tagged proteins were expressed in the BL21-AI E. Coli expression strain (Invitrogen Corporation, Carlsbad, Calif.) following induction by 0.2% L-arabinose and 0.5 mM IPTG at 30° C. Proteins were purified on Ni-NTA resin (Qiagen, Germantown, Md.).
The assay for Nampt catalytic activity was constructed based on a previously published coupled enzyme fluorometric technique, which employs NADH as ultimate analyte (Revollo, J. R. et al. Biol. Chem. 279, 50754-50763 (2004)). A substantial improvement in assay sensitivity was achieved by switching from direct detection to a resazurin/diaphorase-based fluorometric detection system for NADH (Guilbault, G. G., and Kramer, D. N. Anal. Chem. 37, 1219-1221 (1965)). The standard inhibition analyses were performed in a real-time mode in 96-well microtiter plates using 50 mM Tris-HCl, pH 7.5, 1% DMSO (v/v), 0.01% Triton X-100 (v/v), 10 mM MgCl2, 2 mM ATP, 3 μM NAM, 8 μM PRPP, […], as well as the following detection reagents: 5 nM Nmnat, 200 nM Ugdh, 200 μM UDP-glucose, 0.02 U/mL diaphorase and 0.25 μM resazurin. Incubation of samples at room temperature for up to 3 hours was followed by quantification of fluorescence intensities at excitation and emission wavelengths of 510 nm and 590 nm, respectively, using Gemini XS plate reader (Molecular Devices, Sunnyvale, Calif.). The counter-assay intended to disqualify false positives, such as inhibitors of detection enzymes or fluorescence quenchers, was carried out essentially as described above with an exception that 1 μM NaMN was substituted for Nampt.
A general note: The colour change of resazurin is a common sign of viable cells or microbes.

Series [1] can be described thus: Cytotoxicity Assay (HCT116, CellTiter-Glo). In kind it is cell-based. To be noted: human. Put shortly: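 Cells settled overnight, then exposed to compound in DMSO for 72 h, optionally with nicotinic acid (10 μM final) added alongside. Viability read as CellTiter-Glo luminescence.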
Setting [2] is: HCT116 cells, 72 hours drug incubation, CellTiter-Glo luminescence, read-out: HCT116 cell cytotoxicity IC50.

A word on the IC50: it is the point on the concentration scale where inhibition reaches its midpoint.

T1 sequence (P43490 whole entry): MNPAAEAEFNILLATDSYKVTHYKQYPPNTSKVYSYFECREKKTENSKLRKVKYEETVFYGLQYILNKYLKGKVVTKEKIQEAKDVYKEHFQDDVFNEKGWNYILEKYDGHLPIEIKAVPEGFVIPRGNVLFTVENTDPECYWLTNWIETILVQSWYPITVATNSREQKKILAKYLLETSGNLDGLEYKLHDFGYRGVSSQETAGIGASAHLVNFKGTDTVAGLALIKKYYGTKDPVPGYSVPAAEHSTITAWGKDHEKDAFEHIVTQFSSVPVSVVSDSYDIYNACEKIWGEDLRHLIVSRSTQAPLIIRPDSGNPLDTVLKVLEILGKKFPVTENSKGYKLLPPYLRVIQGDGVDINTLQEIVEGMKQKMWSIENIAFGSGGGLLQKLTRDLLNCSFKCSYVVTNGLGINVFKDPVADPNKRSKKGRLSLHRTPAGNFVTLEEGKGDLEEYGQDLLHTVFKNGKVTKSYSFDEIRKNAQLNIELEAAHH

In the case of `O=C(/C=C/c1ccc(-n2cc(CCN3CCOCC3)c3ccccc32)cc1)NCc1cccnc1` [Compound 175, (2E)-3-(4-{3-[2-(Morpholin-4-yl)ethyl]-1H-indol-1-yl}phenyl)-N-(pyridin-3-ylmethyl)prop-2-enamide], the IC50 at Human NAMPT is roughly 1 nM. The IC50 at 72 h was roughly 7 nM in series [1] (HCT116 cell cytotoxicity IC50) and less than 100 nM in series [1] (setting [2]).

`O=C(NCc1cccnc1)Nc1ccc(-n2cc(CCN3CCCC3)c3ccccc32)cc1` [Compound 78, 1-(Pyridin-3-ylmethyl)-3-(4-{3-[2-(pyrrolidin-1-yl)ethyl]-1H-indol-1-yl}phenyl)urea]: the concentration for half-maximal inhibition (IC50) at Human NAMPT was roughly 1 nM. In addition, the results for the IC50 at 72 h in series [1] (HCT116 cell cytotoxicity IC50) and in series [1] (setting [2]) were roughly 1 nM and less than 100 nM, respectively.

For `O=C(/C=C/c1ccc(-n2nc(C(=O)N3CC(N4CCOCC4)C3)c3ccccc32)cc1)NCc1cccnc1` [Compound 169, (2E)-3-[4-(3-{[3-(Morpholin-4-yl)azetidin-1-yl]carbonyl}-1H-indazol-1-yl)phenyl]-N-(pyridin-3-ylmethyl)prop-2-enamide], the IC50 at Human NAMPT is roughly 3 nM. Also, the results for the IC50 at 72 h in series [1] (HCT116 cell cytotoxicity IC50) and in series [1] (setting [2]) were roughly 10 nM and less than 100 nM, respectively.

On to `O=C(NCc1cccnc1)Nc1ccc(-n2cc(C(=O)N3CCC(N4CCOCC4)CC3)c3cccnc32)cc1` [Compound 27, 1-[4-[3-(4-morpholinopiperidine-1-carbonyl)pyrrolo[2,3-b]pyridin-1-yl]phenyl]-3-(3-pyridylmethyl)urea], for which the IC50 at Human NAMPT is roughly 1 nM. The IC50 at 72 h in series [1] (HCT116 cell cytotoxicity IC50) was roughly 4 nM.

Consider `O=C(NCc1cccnc1)Nc1ccc(-n2nc(C(=O)NCCN3CCCC3)c3ccccc32)cc1` [Compound 6, 1-(4-{[(Pyridin-3-ylmethyl)carbamoyl]amino}phenyl)-N-[2-(pyrrolidin-1-yl)ethyl]-1H-indazole-3-carboxamide], for which the IC50 at Human NAMPT was roughly 2 nM. In series [1] (HCT116 cell cytotoxicity IC50), this compound had a half-inhibitory concentration (IC50) at 72 h of roughly 18 nM.

Take `O=C(NCc1cccnc1)Nc1ccc(-n2cc(C(=O)NCCCN3CCCC3)c3ccccc32)cc1` [Compound 4]: the IC50 at Human NAMPT is roughly 1 nM. This compound returned an IC50 at 72 h in series [1] (HCT116 cell cytotoxicity IC50) of roughly 8 nM.

As for `CC(C(=O)N(C)C)N1CCC2(CC1)CN(c1ccc(NC(=O)NCc3cccnc3)cc1)c1ccccc12` (stereo not drawn) [Compound 47, N,N-Dimethyl-2-[1-(4-{[(pyridin-3-ylmethyl)carbamoyl]ami-no}phenyl)-1,2-dihydro-1′H-spiro[indole-3,4′-piperidin]-1′-yl]propanamide], the IC50 at Human NAMPT was less than 1 nM. Moreover, the IC50 at 72 h in series [1] (HCT116 cell cytotoxicity IC50) is less than 1 nM; in series [1] (setting [2]) it was less than 100 nM.
